Experimental data from a melting point compilation (Tetko et al.; mined from patent text by program, amines drawn as free bases though some values may be those of a salt).

Compound | melting point [°C]
CCN(CC)c1ccc2c(c1)C[C@@H]1c3ccccc3N[C@H]21 (relative stereo) | 116 to 118
COc1ccc(C=O)c(Cl)c1OC(C)=O | 48 to 50
CC(C)NC(=O)c1c(NC(=O)c2cc(C(F)(F)F)nn2-c2ncccc2Cl)c(Cl)cc2cn[nH]c12 | 245 to 247
CC(N)C(Cc1ccc(OCc2ccccc2)cc1)CC(O)c1ccccc1F (centres undefined) | 162 to 163
CC(=O)Nc1ccc([N+](=O)[O-])c(C)c1C(=O)O | 190 to 191
O=C(O)CN1CC2(CCCCC2)CC1=O | 122 to 124
CCOC(=O)C1=C(C(=O)OC)CC(=O)C2=C1SC=C1C=CC=CN12 | 143 to 144
COc1ccc(C(=O)c2ccc(Br)cc2)c(C)c1F | 93 to 95
CCOC(=O)c1cc(N=c2sc(=O)n3n2CCCC3)c(Cl)cc1Cl | 81 to 83
FC(F)Oc1ccc2c(Cc3c(Cl)cncc3Cl)nnc(N3CCOCC3)c2c1 | 129 to 131
CCOC(=O)c1cnn(-c2c(F)c(F)c(C(F)(F)F)c(F)c2F)c1N | 166 to 168
O=C1/C(=C/c2cccs2)CNc2cc(OCCn3ccnc3)ccc21 | 211 to 213
CCCCCCC/C=C/C(=O)NCCN1CCCC1 | 56 to 58
O=C(O)c1c(-c2ccccc2)c(-c2ccccc2)nn1-c1ccccc1 | 190
COc1cc(OCc2ccccn2)ccc1C=O | 93.6
CC(C)(CCCCCNS(=O)(=O)c1ccc(Cl)cc1)C(=O)O | 132 to 133
O=C1CCC2c3ccccc3CCC2N1 (centres undefined) | 227 to 228
CCN(CC)C(C)COc1ccccc1C(=O)O (centres undefined) | 137 to 140
CCCCCCCC(=O)Oc1ccc2nc(S(N)(=O)=O)sc2c1 | 114
CCOC(=O)C(CC(=S)c1ccc(-c2ccccc2)cc1)SC(C)=O (centres undefined) | 71.5 to 72.5
CC(C)(C)c1cc(I)c2c(c1)C=NS(=O)(=O)O2 | 130 to 134
CC(Cl)Cn1cc(-c2ccccc2)c2ccccc2c1=O (centres undefined) | 141
COc1ccc(CNc2cc(C(c3cc(F)ccc3F)S(=O)(=O)c3ccc(Cl)cc3)c(Cl)cn2)cc1OC (centres undefined) | 204 to 206
Clc1ccc2sc(Cl)nc2c1 | 70
CCOCc1nc2c(N)nc3cc(-c4ccsc4)ccc3c2n1CC(C)C | 187 to 189

Compound | melting point [°C]
Cn1c2cc(Cl)ccc2c2c(CO)nn(-c3ccccc3)c(=O)c21 | 219 to 220
CC(=O)NC[C@H]1CN(c2ccc3c(c2)CS(=O)(=O)CC3)C(=O)O1 | 177 to 179
O=C(c1ccc(F)cc1)C1CCN(CCn2c(-c3ccccc3)nc3ccccc3c2=O)CC1 | 144
CC(C)Oc1n[nH]cc1C(=O)NCc1ccc(Cl)cc1Cl | 185 to 186
COC(=O)c1ccc(Nc2nccc(-c3ccncc3)n2)cc1 | 194 to 196
Cn1ncc(C=O)c1-c1cccnc1 | 118 to 119
CCCc1c(OCCCOc2ccc3c(=O)cc(C(=O)O)oc3c2CCC)ccc(C(C)=O)c1O | 173 to 174
O=[N+]([O-])c1ccc(C=Cc2nc(Cl)c3ccccc3n2)o1 | 252 to 254
CC(=NC(=Nc1ccccc1)N1CCOCC1)NCCO | 132 to 134
COc1cc2c(cc1C(=O)c1cc(C(C)(C)C)c(O)c(C(C)(C)C)c1)CCC2 | 154 to 156
S=C=Nc1ccccc1-c1ccc(Cl)cc1 | 63
Nc1cc(C(=O)O)cc(S(N)(=O)=O)c1Nc1ccccc1 | 251
OCCNCCOc1ccc2cc3ccc(OCCNCCO)cc3nc2c1 | 125 to 127
COc1ccc(C(=O)c2cccc(OCc3nc(-c4ccccc4)oc3C)c2)c(OCC(=O)O)c1 | 198 to 199
O=Cc1nc(-c2ccccc2)c(-c2ccccc2)n1Cc1ccccc1 | 146 to 147
Cc1ccc2c3c(ccc2n1)OCC(CN1CCC(c2nc4ccccc4o2)CC1)O3 (centres undefined) | 128 to 130
O=C(O)C(O)(c1ccccc1)c1ccc(Br)cc1 (racemic) | 125 to 126
CC(C)C(C(=O)OCc1nn(Cc2ccccc2)c(=O)o1)c1ccc(Cl)cc1 (centres undefined) | 70
O=C(c1ccccc1)n1c(=O)c(C(F)(F)F)cn(C2CC(O)C(CO)O2)c1=O (centres undefined) | 144 to 146
CC1(C)C=Cc2c(c3ccccc3n(Cc3ccccc3)c2=O)O1 | 91 to 92
CC(C)c1coc(=O)n1-c1cc(F)c(C#N)cc1F | 83
O=C1Nc2c(F)cc(F)cc2C1c1ncnc2c1cnn2C1CCCC1 (centres undefined) | > 300
CC(C)(C)c1ccc(C#N)c(NC(=O)Nc2cccnc2)c1 | 164 to 166
COCCOC(=O)c1ccc(-c2ccc(N)cc2)c(C)c1 | 72 to 75
O=C1Cc2ccccc2C(=O)N1c1ccc(Cl)cc1 | 178 to 180

Results, then the compound that gave them:

melting point [°C] | Compound
176 to 178 | CCN1c2ncc(CCc3ccncc3)cc2C(=O)Nc2c(C)ccnc21
132 to 133 | COc1ccc(Cl)c(OC)c1C(=O)O
86 to 88 | COc1ccc(C2=C(CC(C)N(C)C(C)C)C(=O)NCCC2)cc1 (centres undefined)
55 to 56 | CCOC(=O)c1c(C)nn(C)c1SCc1ccccc1
99 to 100 | C[C@@H]1C(=O)c2ccccc2O[C@H]1c1ccccc1 (relative stereo)
109 to 111 | CC(=O)CCCn1c(=O)c2c(ncn2C)n(C)c1=O
154 | Oc1ccc(C(O)CN2CCN(C(c3ccccc3)c3ccccc3)CC2)cc1 (centres undefined)
156 to 159 | CCCCNC(=O)NS(=O)(=O)Cc1ccccc1-c1nnc(SC)o1
102 to 105 | CCCc1nc(N2CCOCC2)c2cscc2n1
191 to 192 | CCCCc1nc2c(N)nc3ccccc3c2n1CCCNC(=O)Nc1ccccc1
210 to 213 | Cc1ccc(-c2ccc(C(=O)Nc3ccc4cc(CN5CCCC5)cnc4c3F)cc2)cc1
188 to 189 | COc1ccc(CC(C#N)=CNc2ccccc2)c2ccccc12
117 to 119 | C(=C(c1ccccc1)c1ccccc1)c1ccccn1
56 to 58 | Cc1nn(-c2cc(OC(C)C)c(Cl)cc2Cl)c(C)c1C
> 260 | COc1ccc(F)c(-n2c(=O)[nH]c3c(C(N)=O)nc(-c4cccc(O)c4)nc32)c1
286 to 288 | CCCCNC(=O)C1CC2(NC(=O)NC2=O)c2cc(F)ccc2O1 (centres undefined)
103 to 104 | COC(=O)C(O[Si](C)(C)C(C)(C)C)c1ccccc1O (centres undefined)
158 to 160 | NC(=S)Nc1c(Cl)cccc1Cl
89 to 90 | BrC(c1ccccc1)c1ccc2ccccc2c1 (centres undefined)
106 to 107 | COc1cccc(-c2cc(Cl)c3cc(OC)ccc3n2)c1
96 to 100 | CCCCCc1c(-c2ccc3cc(O)ccc3c2)n(Cc2ccccc2)c2ccccc12
165 to 169 | O=C(NC1CCCCC1)NS(=O)(=O)c1cnccc1NC1CCCCCC1
124 | CCCc1c2c(c3oc(C(=O)OC)cc(=O)c3c1OC)CCCC2
128 to 130 | CN(Cc1cc(C(F)(F)F)cc(C(F)(F)F)c1)C(=O)c1nc(NCc2ccccc2)ncc1-c1ccccc1
190 to 192 | CN=C(N)N(C)Cc1ccc(C2=NNC(=O)CC2C)cc1 (centres undefined)
170 to 172 | COc1ccc(CSc2cccnc2C(=O)O)cc1
117 to 119 | O=[N+]([O-])c1cc(O)c(F)cc1F

melting point [°C] | Compound
105 to 107 | N#CCc1cc2c(cc1CC#N)OCO2
177 to 180 | Cc1cn(C)c(=O)n(-c2cc(C(=O)OC(C)C)c(Cl)cc2F)c1=O
138 to 140 | O=C(Nc1ccc(CN2CCNCC2)cc1)c1cc(=O)c2ccccc2o1
261 to 264 | CC(C)(N)[C@H]1CCN(c2c(F)cc3c(=O)c(C(=O)O)cn(C4CC4)c3c2F)C1
96 to 98 | CC(C)(C)OC(=O)N1CCN(CCC(N)=O)CC1
172 to 175 | Cc1cnc(NC(=O)C(Cc2ccc(F)cc2)c2ccc(S(C)(=O)=O)cc2)cn1 (centres undefined)
157 to 159 | Cc1ccc(C2(c3ccc(C)cc3)NC(=O)N(CCCN3CCC(C#N)(c4ccccc4)CC3)C2=O)cc1
> 250 | Cc1ccc2c(c1)C1c3cc4c(cc3OCC1NC2=O)OCO4 (centres undefined)
196 to 198 | Cc1cccc2c3c(n(Cc4ccc(Cl)cc4)c12)C(CC(=O)O)CCC3 (single isomer, unassigned; (-))
100 to 102 | CC[C@H](COC)n1cc(Cl)nc(N2CCc3cc(OC)cc(Br)c32)c1=O
122 to 123 | O=C(NCc1cccnc1)c1ccnc(N2CCN(CC3CC3)C2=O)c1
91 to 93 | CC(=O)CN1C(=O)c2ccccc2C12OCCO2
127 | CC(=O)N1CCN(CCOc2ccc(C3CCN(C4=Nn5c(nnc5C(F)(F)F)CC4)CC3)cc2)CC1
178 to 179 | N#Cc1sc(-c2ccccc2)nc1N
111 to 112 | CO[C@@H](Cc1ccc(C#CCOc2ccc(-c3ccccc3)cc2)cc1)C(=O)O
130 | CNc1cc(O)cc(O)c1
162 to 164 | Cc1cc2cc(O)ccc2c(Oc2ccc(/C=C/C(=O)O)cc2)c1-c1ccc(O)cc1
46 to 48 | CCCCCCCCCOC1CCC(=O)N1 (centres undefined)
157 to 158 | COC(=O)CCC(C)(C)c1ccc(OC)c(NC(=O)C[C@H]2O[C@H](c3cccc(OC)c3OC)c3cc(Cl)ccc3N(CC(C)(C)COC(C)=O)C2=O)c1
175 to 179 | CC(c1ccc(CCn2cnc3cc(-c4ccc(Cl)cc4)sc3c2=O)cc1)N1CCCCC1 (centres undefined)
72 | COc1cc(C(=O)OCc2ccccc2)ccc1S(=O)(=O)Cl
113 to 115 | COC(C)c1cccc2oc(C(=O)O)c(C)c12 (centres undefined)
151 to 152 | C/C(=C(\C#N)C(=S)/N=C/N(C)C)N1CCC(c2ccccc2)CC1
99 to 101 | COCCN1CCN(c2cccc(-c3nc4cc(OC)cc(OC)c4c(=O)[nH]3)n2)CC1
242 to 246 | CNC(=O)Cc1c(C(=O)c2ccccc2)[nH]c2cc(Cl)ccc12
162 to 164 | CC(=O)c1c(C)[nH]c(C2CCCC2)c1C
156 to 158 | N=C(Nc1ccc(F)cc1)Nc1nc(-c2ccccc2)cs1
